Test results reported in PubChem BioAssay AID1259411 (Chemical Carcinogenesis Research Information System (CCRIS), 2018).
Calls of active or inactive are those of the source. The rule behind the calls is not given here.

Test system: rodent carcinogenicity bioassays, tumor incidence
Test: CCRIS carcinogenicity studies
Summary of the method: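 NCI-built, expert-reviewed records of carcinogenicity and related test outcomes (mutagenicity, tumor promotion/inhibition) compiled from published and report sources, historical span 1985-2011, not updated.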

## O=[N+]([O-])c1ccc2ccc3c4ccccc4c([N+](=O)[O-])c4ccc1c2c43
Species: RAT, Strain/Sex: F344/MALE, Route: SUBCUTANEOUS IMPLANT, Dose: 0, 8, 40, 200, 1000 UG IN 50 µL BEESWAX/TRICAPRYLIN IMPLANTED FOR UP TO 45 WK (STUDY DURATION: 45 WK), Dose: 0, 8, 40, 200, 1000 UG IN 50 µL BEESWAX/TRICAPRYLIN IMPLANTED FOR UP TO 45 WK (STUDY DURATION: 45 WK), Tumor Site: Type of Lesion: IMPLANT SITE: TUMOR
  carcinogen call: active; positive
Species: RAT, Strain/Sex: F344/MALE, Route: SUBCUTANEOUS, Dose: 0, 8, 40, 200, 1000 UG SUSPENDED IN BEESWAX/TRICAPRYLIN (1:1) ONCE (STUDY DURATION: LIFETIME), Dose: 0, 8, 40, 200, 1000 UG SUSPENDED IN BEESWAX/TRICAPRYLIN (1:1) ONCE (STUDY DURATION: LIFETIME), Tumor Site: Type of Lesion: SUBCUTANEOUS TISSUE: TUMOR
  carcinogen call: active; positive

## C/[N+]([O-])=N/CO
Species: HAMSTER, Strain/Sex: SYRIAN/MALE,FEMALE, Route: INTRAVENOUS, Dose: 10 MG/KG BW, 4-5 INJ, Tumor Site: Type of Lesion: LIVER: CYSTADENOMA AND CYSTIC LESIONS, VASCULAR TUMOR, HEPATOCELLULAR CARCINOMA, INTESTINES (LARGE): ADENOMA, ADENOCARCI
  carcinogen call: active; positive
Species: HAMSTER, Strain/Sex: SYRIAN/MALE,FEMALE, Route: INTRAVENOUS, Dose: 15 MG/KG BW, 4-5 INJ, Tumor Site: Type of Lesion: LIVER: CYSTADENOMA AND CYSTIC LESIONS, VASCULAR TUMOR, HEPATOCELLULAR CARCINOMA, INTESTINES (LARGE): ADENOMA, ADENOCARCI
  carcinogen call: active; positive
Species: HAMSTER, Strain/Sex: SYRIAN/MALE,FEMALE, Route: INTRAVENOUS, Dose: 20 MG/KG BW, 3 INJ, Tumor Site: Type of Lesion: LIVER: CYSTADENOMA AND CYSTIC LESIONS, GALL BLADDER: ADENOCARCINOMA, INTESTINES (LARGE): ADENOCARCINOMA, Tumor Site: Type of Lesion: LIVER: CYSTADENOMA AND CYSTIC LESIONS, GALL BLADDER: ADENOCARCINOMA, INTESTINES (LARGE): ADENOCARCINOMA
  carcinogen call: active; positive
Species: HAMSTER, Strain/Sex: SYRIAN/MALE,FEMALE, Route: INTRAVENOUS, Dose: 20 MG/KG BW, SINGLE DOSE, Tumor Site: Type of Lesion: LIVER: ADENOCARCINOMA, HEPATOCELLULAR CARCINOMA, VASCULAR TUMOR, CYSTADENOMA AND CYSTIC LESIONS, INTESTINES (LARGE): ADE
  carcinogen call: active; positive
Species: RAT, Strain/Sex: SPRAGUE-DAWLEY/MALE, Route: INTRAVENOUS, Dose: 25 MG/KG 1/WK FOR 5 WK, Tumor Site: Type of Lesion: INTESTINES (JEJUNUM OR ILEUM), INTESTINES (COLON OR RECTUM), CECUM, DUODENUM, Tumor Site: Type of Lesion: INTESTINES (JEJUNUM OR ILEUM), INTESTINES (COLON OR RECTUM), CECUM, DUODENUM
  carcinogen call: active; positive
Species: RAT, Strain/Sex: SPRAGUE-DAWLEY/MALE, Route: INTRAVENOUS, Dose: 25 MG/KG 1/WK FOR 15 WK, Tumor Site: Type of Lesion: INTESTINES (JEJUNUM OR ILEUM), INTESTINES (COLON OR RECTUM), CECUM, DUODENUM, Tumor Site: Type of Lesion: INTESTINES (JEJUNUM OR ILEUM), INTESTINES (COLON OR RECTUM), CECUM, DUODENUM
  carcinogen call: active; positive
Species: RAT, Strain/Sex: SPRAGUE-DAWLEY/MALE, Route: INTRAVENOUS, Dose: 25 MG/KG, SINGLE DOSE, Tumor Site: Type of Lesion: INTESTINES (JEJUNUM OR ILEUM), INTESTINES (COLON OR RECTUM)
  carcinogen call: active; positive

## CCOC(=O)NO
Species: MOUSE, Strain/Sex: C57BL, Route: INTRAPERITONEAL, Dose: 1.18 MG/G 10X AT WEEKLY INTERVALS, Tumor Site: Type of Lesion: THYMUS GLAND: LYMPHOSARCOMA, LUNG: ADENOMA
  carcinogen call: active; positive
Species: MOUSE, Strain/Sex: STRAIN-A/FEMALE, Route: INTRAPERITONEAL, Dose: 4000 NMOL/G, Tumor Site: Type of Lesion: LUNG: ADENOMA
  carcinogen call: active; positive

## c1ccc2nc3ccccc3cc2c1
Species: RAT, Strain/Sex: OSBORNE-MENDEL/FEMALE, Route: LUNG IMPLANT, Dose: 0, 0.2, 1.0, 5.0 MG IN BEESWAX/TRICAPRYLIN (STUDY DURATION: LIFETIME), Dose: 0, 0.2, 1.0, 5.0 MG IN BEESWAX/TRICAPRYLIN (STUDY DURATION: LIFETIME)
  carcinogen call: inactive; negative

## C=C1C[C@]23C[C@@]1(O)CC[C@H]2[C@@]12C=C[C@H](O)[C@@](C)(C(=O)O1)[C@H]2[C@@H]3C(=O)O
Species: MOUSE, Strain/Sex: SWISS/FEMALE, Route: GAVAGE, Dose: 0, 3 PPM IN 0.3 ML PHYSIOLOGICAL SALINE 2/WK FOR 22 MO (STUDY DURATION: 22 MO), Tumor Site: Type of Lesion: BREAST: ADENOCARCINOMA, SKIN: SEBACEOUS ADENOMA
  carcinogen call: active; positive
Species: MOUSE, Strain/Sex: SWISS/MALE, Route: GAVAGE, Dose: 0, 3 PPM IN 0.3 ML PHYSIOLOGICAL SALINE 2/WK FOR 22 MO (STUDY DURATION: 22 MO), Tumor Site: Type of Lesion: SKIN: SEBACEOUS ADENOMA, LUNG: TUMOR
  carcinogen call: active; positive

## C[N+](C)(C)CCCl
Species: MOUSE, Strain/Sex: B6C3F1/FEMALE, Route: ORAL, Dose: 0, 500, 2000 PPM IN DIET, Dose: 0, 500, 2000 PPM IN DIET
  carcinogen call: inactive; negative
Species: MOUSE, Strain/Sex: B6C3F1/MALE, Route: ORAL, Dose: 0, 500, 2000 PPM IN DIET, Dose: 0, 500, 2000 PPM IN DIET
  carcinogen call: inactive; negative
Species: RAT, Strain/Sex: F344/FEMALE, Route: ORAL, Dose: 0, 1500, 3000 PPM IN DIET, Dose: 0, 1500, 3000 PPM IN DIET
  carcinogen call: inactive; negative
Species: RAT, Strain/Sex: F344/MALE, Route: ORAL, Dose: 0, 1500, 3000 PPM IN DIET, Dose: 0, 1500, 3000 PPM IN DIET
  carcinogen call: inactive; negative

## Nc1c(Cl)c(Cl)nc(C(=O)O)c1Cl
Species: MOUSE, Strain/Sex: B6C3F1/FEMALE, Route: ORAL, Dose: 0, 2531, 5062 PPM IN DIET FOR 80 WK (STUDY DURATION: 90 WK), Dose: 0, 2531, 5062 PPM IN DIET FOR 80 WK (STUDY DURATION: 90 WK)
  carcinogen call: inactive; negative
Species: MOUSE, Strain/Sex: B6C3F1/MALE, Route: ORAL, Dose: 0, 2531, 5062 PPM IN DIET FOR 80 WK (STUDY DURATION: 90 WK), Dose: 0, 2531, 5062 PPM IN DIET FOR 80 WK (STUDY DURATION: 90 WK)
  carcinogen call: inactive; negative
Species: RAT, Strain/Sex: F344/FEMALE, Route: ORAL, Dose: 0, 20, 60, 200 MG/KG/D OF TECHNICAL GRADE PICLORAM IN FEED FOR 2 YR (STUDY DURATION: 2 YR), Dose: 0, 20, 60, 200 MG/KG/D OF TECHNICAL GRADE PICLORAM IN FEED FOR 2 YR (STUDY DURATION: 2 YR)
  carcinogen call: inactive; negative
Species: RAT, Strain/Sex: F344/MALE, Route: ORAL, Dose: 0, 20, 60, 200 MG/KG/D OF TECHNICAL GRADE PICLORAM IN FEED FOR 2 YR (STUDY DURATION: 2 YR), Dose: 0, 20, 60, 200 MG/KG/D OF TECHNICAL GRADE PICLORAM IN FEED FOR 2 YR (STUDY DURATION: 2 YR)
  carcinogen call: inactive; negative
Species: RAT, Strain/Sex: OSBORNE-MENDEL/FEMALE, Route: ORAL, Dose: 0, 7437, 14875 PPM IN DIET FOR 80 WK (STUDY DURATION: 113 WK), Dose: 0, 7437, 14875 PPM IN DIET FOR 80 WK (STUDY DURATION: 113 WK), Tumor Site: Type of Lesion: LIVER: NEOPLASTIC NODULE
  carcinogen call: equivocal
Species: RAT, Strain/Sex: OSBORNE-MENDEL/MALE, Route: ORAL, Dose: 0, 7437, 14875 PPM IN DIET FOR 80 WK (STUDY DURATION: 113 WK), Dose: 0, 7437, 14875 PPM IN DIET FOR 80 WK (STUDY DURATION: 113 WK)
  carcinogen call: inactive; negative

## OB(O)O
Species: MOUSE, Strain/Sex: B6C3F1/FEMALE, Route: ORAL, Dose: 0, 2500, 5000 PPM IN DIET FOR 103 WK (STUDY DURATION: 105 WK), Dose: 0, 2500, 5000 PPM IN DIET FOR 103 WK (STUDY DURATION: 105 WK)
  carcinogen call: inactive; negative
Species: MOUSE, Strain/Sex: B6C3F1/MALE, Route: ORAL, Dose: 0, 2500, 5000 PPM IN DIET FOR 103 WK (STUDY DURATION: 105 WK), Dose: 0, 2500, 5000 PPM IN DIET FOR 103 WK (STUDY DURATION: 105 WK)
  carcinogen call: inactive; negative
